Laboratory results: patent US11279687B2, “Compounds and compositions for the inhibition of NAMPT” (Valo Health, Inc., priority 2010, dated 2022)
pIC50: −log10 of the molar value.

Columns and labels:
A2780 cells = assay: In-vitro cell proliferation assay (SRB), A2780 cells; assay type: cell-based; conditions: Homo sapiens, A2780, 72 h, A2780 cells, 72 hours, SRB; read-out: A2780 IC50;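 note: viable cell number read as SRB absorbance, background from media-only wells subtracted, IC50 interpolated from percent inhibition at two bracketing compound concentrations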
NAMPT = NAMPT (Homo sapiens (Human), UniProt P43490); assay: NAMPT biochemical inhibition assay (NMN quantified by mass spectrometry); conditions: NAMPT biochemical inhibition; read-out: Biochem IC50
Sequence of NAMPT (P43490 whole entry): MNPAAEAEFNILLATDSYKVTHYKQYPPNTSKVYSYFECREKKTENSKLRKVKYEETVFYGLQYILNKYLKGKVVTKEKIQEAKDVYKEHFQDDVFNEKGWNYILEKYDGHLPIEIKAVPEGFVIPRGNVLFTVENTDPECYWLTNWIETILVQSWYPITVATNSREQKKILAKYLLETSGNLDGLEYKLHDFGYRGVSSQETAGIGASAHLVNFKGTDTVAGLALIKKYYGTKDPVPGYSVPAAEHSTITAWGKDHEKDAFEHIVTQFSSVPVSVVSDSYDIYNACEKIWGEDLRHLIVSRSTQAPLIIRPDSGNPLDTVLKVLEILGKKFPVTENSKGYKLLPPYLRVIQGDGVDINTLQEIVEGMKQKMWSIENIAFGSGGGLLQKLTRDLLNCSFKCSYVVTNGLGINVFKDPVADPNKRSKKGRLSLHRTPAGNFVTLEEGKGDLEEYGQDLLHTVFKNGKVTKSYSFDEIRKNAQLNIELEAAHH

Row | SMILES | pIC50 (A2780 cells) | pIC50 (NAMPT)
1 | COc1ccccc1S(=O)(=O)c1ccc(NC(=O)NCc2cccnc2)cc1 [3-{4-[(2-methoxybenzene)sulfonyl]phenyl}-1-(pyridin-3-ylmethyl)urea] | 8.00 | 8.70
2 | COc1ncccc1NS(=O)(=O)c1ccc(NC(=O)NCc2cccnc2)cc1 [3-{4-[(2-methoxypyridin-3-yl)sulfamoyl]phenyl}-1-(pyridin-3-ylmethyl)urea] | 6.94 | 8.15
3 | Cc1ccccc1S(=O)(=O)c1ccc(NC(=O)NCc2cccnc2)cc1 [3-{4-[(2-methylbenzene)sulfonyl]phenyl}-1-(pyridin-3-ylmethyl)urea] | 6.35 | 8.70
4 | CC(C)(NS(=O)(=O)c1ccc(NC(=O)NCc2cccnc2)cc1)c1ccccc1 [3-{4-[(2-phenylpropan-2-yl)sulfamoyl]phenyl}-1-(pyridin-3-ylmethyl)urea] | 7.41 | 8.30
5 | COC[C@@H]1CCCN1S(=O)(=O)c1ccc(NC(=O)NCc2cccnc2)cc1 [3-{4-[(2S)-2-(methoxymethyl)pyrrolidine-1-sulfonyl]phenyl}-1-(pyridin-3-ylmethyl)urea] | 7.22 | 8.70
6 | CC[C@H]1CCCCN1S(=O)(=O)c1ccc(NC(=O)NCc2cccnc2)cc1 [3-{4-[(2S)-2-ethylpiperidine-1-sulfonyl]phenyl}-1-(pyridin-3-ylmethyl)urea] | 7.74 | 8.40
7 | O=C(NCc1cccnc1)Nc1ccc(S(=O)(=O)c2ccc(Cl)c(Cl)c2)cc1 [3-{4-[(3,4-dichlorobenzene)sulfonyl]phenyl}-1-(pyridin-3-ylmethyl)urea] | 6.00 to 7.00 | 8.54
8 | O=C(NCc1cccnc1)Nc1ccc(S(=O)(=O)Nc2ccc(Cl)c(Cl)c2)cc1 [3-{4-[(3,4-dichlorophenyl)sulfamoyl]phenyl]-1-(pyridin-3-ylmethyl)urea] | 6.91 | 8.22
9 | O=C(NCc1cccnc1)Nc1ccc(S(=O)(=O)c2ccc(F)c(F)c2)cc1 [3-{4-[(3,4-difluorobenzene)sulfonyl]phenyl}-1-(pyridin-3-ylmethyl)urea] | 6.67 | 8.52
10 | COc1ccc(S(=O)(=O)c2ccc(NC(=O)NCc3cccnc3)cc2)cc1OC [3-{4-[(3,4-dimethoxybenzene)sulfonyl]phenyl}-1-(pyridin-3-ylmethyl)urea] | 7.77 | 8.30
11 | COc1ccc(NS(=O)(=O)c2ccc(NC(=O)NCc3cccnc3)cc2)cc1OC [3-{4-[(3,4-dimethoxyphenyl)sulfamoyl]phenyl]-1-(pyridin-3-ylmethyl)urea] | 6.94 | 8.30
12 | Cc1ccc(NS(=O)(=O)c2ccc(NC(=O)NCc3cccnc3)cc2)cc1C [3-{4-[(3,4-dimethylphenyl)sulfamoyl]phenyl}-1-(pyridin-3-ylmethyl)urea] | 7.03 | 8.52
13 | O=C(NCc1cccnc1)Nc1ccc(S(=O)(=O)c2cc(Cl)cc(Cl)c2)cc1 [3-{4-[(3,5-dichlorobenzene)sulfonyl]phenyl}-1-(pyridin-3-ylmethyl)urea] | 6.00 to 7.00 | 8.72
14 | O=C(NCc1cccnc1)Nc1ccc(S(=O)(=O)c2cc(F)cc(F)c2)cc1 [3-{4-[(3,5-difluorobenzene)sulfonyl]phenyl}-1-(pyridin-3-ylmethyl)urea] | 6.55 | 8.52
15 | COc1cc(NS(=O)(=O)c2ccc(NC(=O)NCc3cccnc3)cc2)cc(OC)c1 [3-{4-[(3,5-dimethoxyphenyl)sulfamoyl]phenyl}-1-(pyridin-3-ylmethyl)urea] | 7.02 | 8.30
16 | Cc1cc(C)cc(S(=O)(=O)c2ccc(NC(=O)NCc3cccnc3)cc2)c1 [3-{4-[(3,5-dimethylbenzene)sulfonyl]phenyl}-1-(pyridin-3-ylmethyl)urea] | 7.40 | 9.00
17 | Cc1cc(C)cc(NS(=O)(=O)c2ccc(NC(=O)NCc3cccnc3)cc2)c1 [3-{4-[(3,5-dimethylphenyl)sulfamoyl]phenyl}-1-(pyridin-3-ylmethyl)urea] | 7.39 | 9.00
18 | CC(=O)c1cccc(S(=O)(=O)c2ccc(NC(=O)NCc3cccnc3)cc2)c1 [3-{4-[(3-acetylbenzene)sulfonyl]phenyl}-1-(pyridin-3-ylmethyl)urea] | 6.00 to 7.00 | 8.68
19 | CS(=O)(=O)N(c1cccc(N)c1)S(=O)(=O)c1ccc(NC(=O)NCc2cccnc2)cc1 [3-{4-[(3-aminophenyl)(methanesulfonyl)sulfamoyl]phenyl}-1-(pyridin-3-ylmethyl)urea] | 6.96 | 8.52
20 | O=C(NCc1cccnc1)Nc1ccc(S(=O)(=O)c2cccc(Br)c2)cc1 [3-{4-[(3-bromobenzene)sulfonyl]phenyl}-1-(pyridin-3-ylmethyl)urea] | 6.49 | 8.70
21 | COc1ccc(S(=O)(=O)c2ccc(NC(=O)NCc3cccnc3)cc2)cc1Cl [3-{4-[(3-chloro-4-methoxybenzene)sulfonyl]phenyl}-1-(pyridin-3-ylmethyl)urea] | 7.03 | 8.89

Results, then the compound that gave them:

Row | pIC50 (A2780 cells) | pIC50 (NAMPT) | SMILES
22 | 6.00 to 7.00 | 9.05 | Cc1ccc(S(=O)(=O)c2ccc(NC(=O)NCc3cccnc3)cc2)cc1Cl [3-{4-[(3-chloro-4-methylbenzene)sulfonyl]phenyl}-1-(pyridin-3-ylmethyl)urea]
23 | 7.59 | 8.85 | Cc1ccc(NS(=O)(=O)c2ccc(NC(=O)NCc3cccnc3)cc2)cc1Cl [3-{4-[(3-chloro-4-methylphenyl)sulfamoyl]phenyl}-1-(pyridin-3-ylmethyl)urea]
24 | 6.00 to 7.00 | 8.34 | CCCOc1ccc(S(=O)(=O)c2ccc(NC(=O)NCc3cccnc3)cc2)cc1Cl [3-{4-[(3-chloro-4-propoxybenzene)sulfonyl]phenyl}-1-(pyridin-3-ylmethyl)urea]
25 | 7.57 | 8.89 | COc1cc(Cl)cc(S(=O)(=O)c2ccc(NC(=O)NCc3cccnc3)cc2)c1 [3-{4-[(3-chloro-5-methoxybenzene)sulfonyl]phenyl}-1-(pyridin-3-ylmethyl)urea]
26 | 7.17 | 8.74 | Cc1cc(Cl)cc(S(=O)(=O)c2ccc(NC(=O)NCc3cccnc3)cc2)c1 [3-{4-[(3-chloro-5-methylbenzene)sulfonyl]phenyl}-1-(pyridin-3-ylmethyl)urea]
27 | 6.29 | 8.52 | O=C(NCc1cccnc1)Nc1ccc(S(=O)(=O)c2cccc(Cl)c2)cc1 [3-{4-[(3-chlorobenzene)sulfonyl]phenyl}-1-(pyridin-3-ylmethyl)urea]
28 | 7.16 | 8.96 | CCS(=O)(=O)Nc1cccc(S(=O)(=O)c2ccc(NC(=O)NCc3cccnc3)cc2)c1 [3-{4-[(3-ethanesulfonamidobenzene)sulfonyl]phenyl}-1-(pyridin-3-ylmethyl)urea]
29 | 7.55 | 8.41 | CCOc1cc(S(=O)(=O)c2ccc(NC(=O)NCc3cccnc3)cc2)ccc1F [3-{4-[(3-ethoxy-4-fluorobenzene)sulfonyl]phenyl}-1-(pyridin-3-ylmethyl)urea]
30 | 7.08 | 8.77 | CCOc1cccc(S(=O)(=O)c2ccc(NC(=O)NCc3cccnc3)cc2)c1 [3-{4-[(3-ethoxybenzene)sulfonyl]phenyl}-1-(pyridin-3-ylmethyl)urea]
31 | 7.15 | 8.70 | CCc1cccc(S(=O)(=O)c2ccc(NC(=O)NCc3cccnc3)cc2)c1 [3-{4-[(3-ethylbenzene)sulfonyl]phenyl}-1-(pyridin-3-ylmethyl)urea]
